Results from the NIST ThermoML archive (doi:10.1021/je100552a).

Key:
[1] = xn = mol fraction of the nth substance listed; settings: 101 kPa, Liquid; for viscosity: Capillary tube (Ostwald / Ubbelohde) method
[2] = refractive index (Na D-line) (dimensionless); xn = mol fraction of the nth substance listed; settings: 101 kPa, Liquid, Standard Abbe refractometry

Clc1ccccc1 [chlorobenzene] + ClCCCl
Settings | mass density, [1] [kg/m3] | refractive index, [2] | viscosity, [1] [mPa·s]
298.15 K, x2 = 0.1022 | 1111.56 | 1.5149 | 0.7456
298.15 K, x2 = 0.2015 | 1123.05 | 1.508 | 0.7387
298.15 K, x2 = 0.3013 | 1135.29 | 1.5012 | 0.7351
298.15 K, x2 = 0.4039 | 1148.64 | 1.4935 | 0.7364
298.15 K, x2 = 0.4999 | 1161.91 | 1.486 | 0.7372
298.15 K, x2 = 0.5977 | 1176.36 | 1.4781 | 0.741
298.15 K, x2 = 0.6986 | 1192.24 | 1.4696 | 0.7445
298.15 K, x2 = 0.8 | 1209.3 | 1.4607 | 0.7536
298.15 K, x2 = 0.899 | 1227.12 | 1.4516 | 0.7659
303.15 K, x2 = 0.1022 | 1106.04 | 1.512 | 0.7146
303.15 K, x2 = 0.2015 | 1117.48 | 1.5052 | 0.7049
303.15 K, x2 = 0.3013 | 1129.68 | 1.4983 | 0.6991
303.15 K, x2 = 0.4039 | 1142.96 | 1.4908 | 0.6969
303.15 K, x2 = 0.4999 | 1156.2 | 1.4832 | 0.6963
303.15 K, x2 = 0.5977 | 1170.62 | 1.4752 | 0.6973
303.15 K, x2 = 0.6986 | 1186.46 | 1.4666 | 0.6975
303.15 K, x2 = 0.8 | 1203.48 | 1.4576 | 0.7009
303.15 K, x2 = 0.899 | 1221.28 | 1.4484 | 0.71
308.15 K, x2 = 0.1022 | 1100.15 | 1.509 | 0.6659
308.15 K, x2 = 0.2015 | 1111.22 | 1.5022 | 0.6595
308.15 K, x2 = 0.3013 | 1123.02 | 1.4951 | 0.6542
308.15 K, x2 = 0.4039 | 1135.91 | 1.4873 | 0.6505
308.15 K, x2 = 0.4999 | 1148.68 | 1.4797 | 0.6506
308.15 K, x2 = 0.5977 | 1162.62 | 1.4715 | 0.65
308.15 K, x2 = 0.6986 | 1177.92 | 1.4626 | 0.6493
308.15 K, x2 = 0.8 | 1194.4 | 1.4534 | 0.653
308.15 K, x2 = 0.899 | 1211.62 | 1.444 | 0.6574
313.15 K, x2 = 0.1022 | 1094.68 | 1.5049 | 0.619
313.15 K, x2 = 0.2015 | 1105.79 | 1.4983 | 0.6151
313.15 K, x2 = 0.3013 | 1117.62 | 1.4915 | 0.6143
313.15 K, x2 = 0.4039 | 1130.48 | 1.4838 | 0.6119
313.15 K, x2 = 0.4999 | 1143.37 | 1.4763 | 0.6125
313.15 K, x2 = 0.5977 | 1157.36 | 1.4682 | 0.6158
313.15 K, x2 = 0.6986 | 1172.73 | 1.4595 | 0.6191
313.15 K, x2 = 0.8 | 1189.28 | 1.4503 | 0.6241
313.15 K, x2 = 0.899 | 1206.59 | 1.441 | 0.6314
